From patent US8524745B2 (Allergan, Inc., priority 2011, dated 2013) come the findings set out here.

Some results are limits rather than exact numbers.

T1 sequence (P41597 whole entry, species assumed): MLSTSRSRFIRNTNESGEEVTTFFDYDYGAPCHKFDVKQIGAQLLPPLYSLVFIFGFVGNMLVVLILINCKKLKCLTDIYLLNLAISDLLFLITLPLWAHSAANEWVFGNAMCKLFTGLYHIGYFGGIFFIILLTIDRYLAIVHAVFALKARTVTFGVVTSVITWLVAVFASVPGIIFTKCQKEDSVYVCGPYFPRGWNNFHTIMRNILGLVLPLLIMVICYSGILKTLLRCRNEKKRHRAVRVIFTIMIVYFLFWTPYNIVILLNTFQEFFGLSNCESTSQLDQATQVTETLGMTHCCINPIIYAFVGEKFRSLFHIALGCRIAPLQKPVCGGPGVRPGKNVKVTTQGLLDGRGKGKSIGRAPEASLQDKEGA

The test addresses T1, CCR2 (Homo sapiens, UniProt P41597).
T1 construct: expressed in transfected cells
Briefly: CCR2 calcium activity assay on FLIPR Tetra in HEK-Gqi5 cells stably expressing CCR2. It counts as cell-based. The protocol: HEK-Gqi5 cells stably expressing CCR2 were cultured in (DMEM high glucose, 10% FBS, 1% PSA, 400 μg/ml geneticin and 50 μg/ml hygromycin. Appropriate positive control chemokines (MCP-1, MIP1A or RANTES) was used as the positive control agonist for screening compound-induced calcium activity assayed on the FLIPR^Tetra. The drug plates were prepared in 384-well microplates using the EP3 and the MuItiPROBE robotic liquid handling systems. Compounds were synthesized and tested for CCR2 activity.
In general, IC50 refers to the point on the concentration scale where inhibition reaches its midpoint. In the case of `COc1cccc(S(=O)(=O)Nc2cc(Cl)c(Cl)cc2NS(=O)(=O)c2ccc3c(c2)c(=O)sn3C)c1` [N-(4,5-dichloro-2-{[(3-methoxyphenyl)sulfonyl]amino}phenyl)-1-methyl-3-oxo-1,3-dihydro-2,1-benzisothiazole-5-sulfonamide], the “CCR2 % ANTAG” value was 92% and the IC50 is 651 nM.

On to `Cn1sc(=O)c2cc(S(=O)(=O)Nc3cc(Cl)c(Cl)cc3NS(=O)(=O)c3cc(Cl)c(Cl)s3)ccc21` [N-(4,5-dichloro-2-{[(4,5-dichloro-2-thienyl)sulfonyl]amino}phenyl)-1-methyl-3-oxo-1,3-dihydro-2,1-benzisothiazole-5-sulfonamide], for which the “CCR2 % ANTAG” value is 103% and the 50% inhibitory concentration (IC50) amounted to 2340 nM.

On to `COc1ccc(S(=O)(=O)Nc2cc(Cl)c(Cl)cc2NS(=O)(=O)c2ccc3c(c2)c(=O)sn3C)cc1` [N-(4,5-dichloro-2-{[(4-methoxyphenyl)sulfonyl]amino}phenyl)-1-methyl-3-oxo-1,3-dihydro-2,1-benzisothiazole-5-sulfonamide], for which the “CCR2 % ANTAG” value worked out at 86% and the IC50 was determined as 1010 nM.

Consider `Cc1ccc(S(=O)(=O)Nc2cc(Cl)c(Cl)cc2NS(=O)(=O)c2ccc3c(c2)c(=O)sn3C)s1` [N-(4,5-dichloro-2-{[(5-methyl-2-thienyl)sulfonyl]amino}phenyl)-1-methyl-3-oxo-1,3-dihydro-2,1-benzisothiazole-5-sulfonamide], for which the “CCR2 % ANTAG” value was determined as 95% and the IC50 was 851 nM.

As for `Cc1cc(NS(=O)(=O)c2ccc3c(c2)c(=O)sn3C)c(C)cc1Cl` [N-(4-chloro-2,5-dimethylphenyl)-1-methyl-3-oxo-1,3-dihydro-2,1-benzisothiazole-5-sulfonamide], the “CCR2 % ANTAG” value is 80% and the 50% inhibitory concentration (IC50) came to 1850 nM.

As to `COc1cc(Cl)c(C)cc1NS(=O)(=O)c1ccc2c(c1)c(=O)sn2C` [N-(4-chloro-2-methoxy-5-methylphenyl)-1-methyl-3-oxo-1,3-dihydro-2,1-benzisothiazole-5-sulfonamide], the “CCR2 % ANTAG” value is 0% and the IC50 was > 8300 nM.

For the compound `COc1ccc(C(=O)Nc2ccc(Cl)cc2NS(=O)(=O)c2ccc3c(c2)c(=O)sn3C)cc1` [N-(4-chloro-2-{[(1-methyl-3-oxo-1,3-dihydro-2,1-benzisothiazol-5-yl)sulfonyl]amino}phenyl)-4-methoxybenzamide], the “CCR2 % ANTAG” value turned out to be 56%.

Take `CC(=O)Nc1ccc(S(=O)(=O)Nc2ccc(Cl)cc2NS(=O)(=O)c2ccc3c(c2)c(=O)sn3C)cc1` [N-(4-{[(4-chloro-2-{[(1-methyl-3-oxo-1,3-dihydro-2,1-benzisothiazol-5-yl)sulfonyl]amino}phenyl)amino]sulfonyl}phenyl)acetamide]: the “CCR2 % ANTAG” value came to 80% and the IC50 was 2230 nM.

For the compound `COc1ccc(S(=O)(=O)Nc2ccc(Cl)cc2NS(=O)(=O)c2ccc3c(c2)c(=O)sn3C)c(OC)c1` [N-(5-chloro-2-{[(2,4-dimethoxyphenyl)sulfonyl]amino}phenyl)-1-methyl-3-oxo-1,3-dihydro-2,1-benzisothiazole-5-sulfonamide], the “CCR2 % ANTAG” value worked out at 95% and the IC50 stood at 1680 nM.

As for `COc1ccccc1S(=O)(=O)Nc1ccc(Cl)cc1NS(=O)(=O)c1ccc2c(c1)c(=O)sn2C` [N-(5-chloro-2-{[(2-methoxyphenyl)sulfonyl]amino}phenyl)-1-methyl-3-oxo-1,3-dihydro-2,1-benzisothiazole-5-sulfonamide], the “CCR2 % ANTAG” value is 91% and the IC50 was found to be 397 nM.

Regarding `Cn1sc(=O)c2cc(S(=O)(=O)Nc3cc(Cl)ccc3NS(=O)(=O)c3ccc(Cl)c(Cl)c3)ccc21` [N-(5-chloro-2-{[(3,4-dichlorophenyl)sulfonyl]amino}phenyl)-1-methyl-3-oxo-1,3-dihydro-2,1-benzisothiazole-5-sulfonamide], the “CCR2 % ANTAG” value worked out at 97% and the half-maximal inhibitory concentration (IC50) is 1290 nM.

With `COc1ccc(S(=O)(=O)Nc2ccc(Cl)cc2NS(=O)(=O)c2ccc3c(c2)c(=O)sn3C)cc1OC` [N-(5-chloro-2-{[(3,4-dimethoxyphenyl)sulfonyl]amino}phenyl)-1-methyl-3-oxo-1,3-dihydro-2,1-benzisothiazole-5-sulfonamide], the “CCR2 % ANTAG” value worked out at 93% and the half-inhibitory concentration (IC50) is 1020 nM.

As to `Cn1sc(=O)c2cc(S(=O)(=O)Nc3cc(Cl)ccc3NS(=O)(=O)c3cc(Cl)cc(Cl)c3)ccc21` [N-(5-chloro-2-{[(3,5-dichlorophenyl)sulfonyl]amino}phenyl)-1-methyl-3-oxo-1,3-dihydro-2,1-benzisothiazole-5-sulfonamide], the “CCR2 % ANTAG” value was 94% and the IC50 is 2600 nM.

Regarding `Cn1sc(=O)c2cc(S(=O)(=O)Nc3cc(Cl)ccc3NS(=O)(=O)c3cccc(Cl)c3)ccc21` [N-(5-chloro-2-{[(3-chlorophenyl)sulfonyl]amino}phenyl)-1-methyl-3-oxo-1,3-dihydro-2,1-benzisothiazole-5-sulfonamide], the “CCR2 % ANTAG” value is reported as 91% and the 50% inhibitory concentration (IC50) came to 493 nM.

For the compound `COc1cccc(S(=O)(=O)Nc2ccc(Cl)cc2NS(=O)(=O)c2ccc3c(c2)c(=O)sn3C)c1` [N-(5-chloro-2-{[(3-methoxyphenyl)sulfonyl]amino}phenyl)-1-methyl-3-oxo-1,3-dihydro-2,1-benzisothiazole-5-sulfonamide], the “CCR2 % ANTAG” value is 83% and the IC50 is 402 nM.

Regarding `CCOc1ccc(S(=O)(=O)Nc2ccc(Cl)cc2NS(=O)(=O)c2ccc3c(c2)c(=O)sn3C)cc1` [N-(5-chloro-2-{[(4-ethoxyphenyl)sulfonyl]amino}phenyl)-1-methyl-3-oxo-1,3-dihydro-2,1-benzisothiazole-5-sulfonamide], the “CCR2 % ANTAG” value was 84% and the IC50 was determined as 2790 nM.

With `Cn1sc(=O)c2cc(S(=O)(=O)Nc3cc(Cl)ccc3NS(=O)(=O)c3ccc(O)cc3)ccc21` [N-(5-chloro-2-{[(4-hydroxyphenyl)sulfonyl]amino}phenyl)-1-methyl-3-oxo-1,3-dihydro-2,1-benzisothiazole-5-sulfonamide], the “CCR2 % ANTAG” value worked out at 95% and the IC50 is 491 nM.

As to `CC(C)Oc1ccc(S(=O)(=O)Nc2ccc(Cl)cc2NS(=O)(=O)c2ccc3c(c2)c(=O)sn3C)cc1` [N-(5-chloro-2-{[(4-isopropoxyphenyl)sulfonyl]amino}phenyl)-1-methyl-3-oxo-1,3-dihydro-2,1-benzisothiazole-5-sulfonamide], the “CCR2 % ANTAG” value came to 72%.

As to `CC(C)c1ccc(S(=O)(=O)Nc2ccc(Cl)cc2NS(=O)(=O)c2ccc3c(c2)c(=O)sn3C)cc1` [N-(5-chloro-2-{[(4-isopropylphenyl)sulfonyl]amino}phenyl)-1-methyl-3-oxo-1,3-dihydro-2,1-benzisothiazole-5-sulfonamide], the “CCR2 % ANTAG” value came to 94% and the half-inhibitory concentration (IC50) amounted to 985 nM.

On to `COc1ccc(S(=O)(=O)Nc2ccc(Cl)cc2NS(=O)(=O)c2ccc3c(c2)c(=O)sn3C)cc1` [N-(5-chloro-2-{[(4-methoxyphenyl)sulfonyl]amino}phenyl)-1-methyl-3-oxo-1,3-dihydro-2,1-benzisothiazole-5-sulfonamide], for which the “CCR2 % ANTAG” value is listed as 78% and the half-inhibitory concentration (IC50) came out at 210 nM.

Regarding `Cc1ccc(S(=O)(=O)Nc2ccc(Cl)cc2NS(=O)(=O)c2ccc3c(c2)c(=O)sn3C)cc1` [N-(5-chloro-2-{[(4-methylphenyl)sulfonyl]amino}phenyl)-1-methyl-3-oxo-1,3-dihydro-2,1-benzisothiazole-5-sulfonamide], the “CCR2 % ANTAG” value is reported as 95% and the IC50 stood at 680 nM.
